The record followed here is patent US8168650B2, “Therapeutic uses of bicyclic ligands of sigma 2 receptor” (priority 2006, dated 2012).

In general, EC50 refers to the concentration giving half of the maximal effect. In general, Ki refers to a dissociation constant, usually derived from enzyme kinetics or from competition with a known ligand. For orientation: IC50 means the concentration that inhibits the measured activity by half.

Like-named read-outs stand apart in the source and are kept apart here.

Experiment [1] concerns EMT-6 cells. Put plainly: Annexin V labeling by flow cytometry in EMT-6 cells. In kind it is cell-based, mouse. From the text:
Detection and quantification of apoptosis by flow cytometry. The early stages of apoptosis are characterized by translocation of phosphatidyl serine (PS) from the inner surface of the plasma membrane to the outer surface of the membrane. Annexin V, a protein with high affinity for PS, was used to detect the externalization of PS. In these experiments cell death was quantified flow cytometrically using both an annexin V assay (Apoptosis Detection Kit, R &D Systems, Minneapolis, Minn.) and a TUNEL assay (Apodirect Kit, BD Biosciences Pharmingen, San Diego, Calif.). All of the data was collected and analyzed using a FACS scan flow cytometer (Becton Dickinson, Fullerton, Calif.).
An early step in the induction of apoptosis is the membrane inversion of phosphatidyl serine (PS), which can be detected by the binding of annexin V to the cell surface. In early apoptosis, the cell membrane integrity is still intact, and the fluorescent marker, 7AAD, is excluded from the cell. Therefore, early apoptotic cells are annexin V positive and 7AAD negative. As apoptosis progresses, the cell membrane integrity is lost, and the cells become annexin V positive and 7AAD positive. EMT-6 cells treated with WC-II-26, SV119, and RHM-1-138 were analyzed by flow cytometry, and both early apoptotic death and late apoptotic death were detected after treatment with these three σ2 selective ligands (FIG. 7A). The percentage of EMT-6 cells with positive annexin V staining was 96.6±2.7%, 73.5±2.4%, and 48±6.4% after treatment with WCII-26, SV119 and RHM-I-138, respectively (FIG. 7B).
On the technique in general: Flow cytometry measures light scatter and fluorescence of single cells or particles in a stream.

In experiment [2] the test system is EMT-6 cells. Briefly: Cytotoxicity assay (MTS) in EMT-6 cells. In kind it is cell-based, mouse.
Procedure: Cell culture conditions. EMT-6 mouse breast tumor cells^39 were cultured in DMEM supplemented with 10% fetal bovine serum. The cells were maintained at 37° C. in a humidified incubator with a 5% CO2/95% air atmosphere.
In these experiments, a number of sigma ligands, having a wide range of affinities for σ1 and σ2 receptors, were evaluated for their efficacy to kill EMT-6 cells. […] Cells were incubated for 24 hours or 48 hours with various concentrations of the sigma ligands. Cytotoxicity and cell viability were quantified using the MTS assay.
The subject of a further experiment is caspase-3/7. Put plainly: Caspase-3/7 whole cell assay in MDA-MB-435 cells. In kind it is cell-based, human. Particulars: MDA-MB-435, 24 h. Here is the method: FIG. 8 illustrates activation of caspase-3/7 in EMT-6 cells treated with the sigma-2 selective ligands, WC-II-26, SV119, or RHM-I-138. EMT6 cells were treated for 24 h with concentrations of 40 μM. MDA-MB-435 cells were treated with varying concentrations of sigma-2 selective ligands for 24 h. The highest level of caspase-3/7 activity was detected after 24 h in the presence of 80 μM SV119, 80 μM WC-II-26, and 50 μM RHM-I-138. The data are the mean±1 SEM of three independent experiments. p<0.05; * compared to the control.
Detection of intracellular cellular caspase-3/7 activity. The activation of endogenous caspase-3/7 by the sigma ligands was measured using the CellProbe HT caspase-3/7 whole cell assay (Beckman Coulter, Fullerton, Calif.). The cell permeable, nonfluorescent bisamide substrate, Z-DEVD-R110, was added to the intact cells to detect apoptosis. Upon specific cleavage by caspase-3/7, Z-DEVD-R110 is converted to a fluorescent compound, and the fluorescent signal can be measured as follows. After adding the substrate, Z-DEVD-R110, to the cells treated with a sigma ligand, the plate was incubated for an additional 1.5-2 hour, and the resulting fluorescence measured using a Victor 3 microplate fluorometer at excitation and emission wavelengths of 485 nm and 535 nm, respectively.

The target in the next experiment is σ1 receptor (Cavia porcellus, UniProt Q60492). Briefly: σ1 receptor binding assay, [3H](+)-pentazocine. Particulars: as listed in Table 2.
For experiment [3], the system named is MDA-MB-435 breast cancer cells. Put plainly: Cytotoxicity assay (MTS) in MDA-MB-435 cells. In kind it is cell-based. As to conditions: Homo sapiens. Here is the method: Cytotoxicity assay. The cytotoxic effect of the sigma ligands on EMT-6 cells was measured using the MTS colorimetric assay. MTS is bioreduced by cells into a colored formazan product with an absorbance at 490 nm. The quantity of the products is directly proportional to the number of viable cells in the culture. The MTS assay was performed using the CellTiter96Aqueous One Solution Assay (Promega, Madison, Wis.) according to the manufacturer's protocol. Briefly, EMT-6 cells were seeded at 2×10^3/well in 96-well plates on the day prior to treatment with the sigma ligand. Each sigma ligand was first dissolved in DMSO, and then serially diluted to get the desired concentration. The final concentration of DMSO in the cell culture medium was no more than 0.5%. After a 24 hour or 48 hour treatment with the various sigma ligands, cell death was assessed as follows. The CellTiter 96 AQueous One Solution Reagent was added to each well, and the plate was incubated for 2 hours at 37° C. The plate was then read at 490 nm in a Victor 3 plate reader (PerkinElmer Life and Analytical Sciences, Shelton, Conn.).
In these experiments, sigma ligands WC-II-26, SV119 and RHM-I-138 were evaluated for their efficacy to kill human MDA-MB-435 breast cancer cells. Cells were treated and analyzed as described for EMT-6 cells in Example 33. In these experiments cells were incubated for 24 hours or 48 hours with various concentrations of the sigma ligands.

The target of another experiment is T1, σ2 receptor (Rattus norvegicus, UniProt Q5U3Y7).
T1 construct: from tissue; host or cells: rat liver membrane homogenates
T1 sequence (Q5U3Y7 1-176): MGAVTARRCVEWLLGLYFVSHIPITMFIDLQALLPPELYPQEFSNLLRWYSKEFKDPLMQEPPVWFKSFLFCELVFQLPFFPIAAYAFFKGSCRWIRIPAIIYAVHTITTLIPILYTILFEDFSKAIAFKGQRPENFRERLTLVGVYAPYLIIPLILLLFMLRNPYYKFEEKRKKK
Put plainly: σ2 receptor binding assay, [3H]DTG or [3H]RHM-1. As to conditions: for σ1/σ2 Ratio: Ki for σ1/Ki for σ2.

[4] abbreviates: Mus musculus, EMT6, 24 h, read-out: EC50 (μM, 24 hours), EMT-6, MTS assay, 24 hours.
The mark [5] stands for this setting: Mus musculus, EMT6, 48 h, read-out: EC50 (μM, 48 hours), EMT-6, MTS assay, 48 hours.
Setting [6] is: read-out: IC50 (μM), MDA-MB-435, 24 hours.
Setting [7] is: MDA-MB-435, 48 hours, read-out: IC50 (μM, 48 hours).
Setting [8] is: Ki for σ2 (nM), as listed in Table 2.
The mark [9] stands for this setting: Ki σ2, inhibiting binding of [3H]DTG or [3H]RHM-1 to rat liver homogenates, mean ± SEM.

Sequence of σ1 receptor (Q60492 whole entry): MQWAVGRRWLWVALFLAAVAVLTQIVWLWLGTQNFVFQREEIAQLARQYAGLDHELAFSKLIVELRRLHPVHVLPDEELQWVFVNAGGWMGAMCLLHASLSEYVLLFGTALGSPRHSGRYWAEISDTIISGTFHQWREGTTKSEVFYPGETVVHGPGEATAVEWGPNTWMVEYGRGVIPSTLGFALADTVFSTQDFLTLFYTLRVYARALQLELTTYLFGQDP
Procedure for σ2 receptor: In vitro binding studies were conducted in order to determine the affinity of the target compounds at σ1 and σ2 receptors.
In this example, test compounds were dissolved in N,N-dimethylformamide (DMF), dimethylsulfoxide (DMSO) or ethanol and then diluted in 50 mM Tris-HCl, pH 7.4 buffer containing 150 mM NaCl and 100 mM EDTA. Membrane homogenates were made from guinea pig brain for σ1 binding assays and rat liver for σ2 binding assays. Membrane homogenates were diluted with 50 mM Tris-HCl buffer, pH 8.0, and incubated at 25° C. in a total volume of 150 μL in 96-well plates with the radioligand and test compounds with concentrations ranging from 0.1 nM to 10 μM. After incubation was completed, the reactions were terminated by the addition of 150 μL of ice-cold wash buffer (10 mM Tris-HCl, 150 mM NaCl, pH 7.4) using a 96-channel transfer pipette (Fisher Scientific, Pittsburgh, Pa.), and the samples harvested and filtered rapidly through 96-well fiberglass filter plate (Millipore, Billerica, Mass.) that had been presoaked with 100 μL of 50 mM Tris-HCl buffer, pH 8.0, for 1 h. Each filter was washed three times with 200 μL of ice cold wash buffer.
Ki values were calculated using the method of Cheng and Prusoff20 and represent mean values±SEM.

For `O[C@@H](CN1C2CCC1CC(c1ccccc1)C2)c1cccc(Br)c1` (some centres unmarked) [RHM-I-138], the “percentage of EMT-6 cells with positive annexin V staining” value (from here on “percentage of EMT-6 cells”) in the experiment with EMT-6 cells [1] (40 μM, 16 h) stood at 48±6.4%. Besides, the 50% effective concentration (EC50) came out at 32.5 ± 3.5 µM with EMT-6 cells [2] (setting [4]); 16 µM in the experiment on EMT-6 cells [2] (setting [5]); 16.5 ± 2.1 µM with EMT-6 cells [2] (read-out: EC50 (μM, 48 hours), EMT-6, MTS assay, 48 hours). For the same compound, in the experiment with caspase-3/7, the “concentration at which the highest level of caspase-3/7 activity was detected” value (“concentration at which the highest level” below) came out at 50 µM. For the same compound, the inhibition constant (Ki) at σ1 receptor (read-out: Ki for σ1) was determined as 544 nM; on σ2 receptor (setting [8]), 12.3 nM; on σ2 receptor (setting [9]), 12.3 nM. The IC50 in experiment [3] (setting [6]) was found to be 26.7 ± 4.3 µM; in experiment [3] (setting [7]), 19 ± 1.8 µM. The “σ1/σ2 Ratio” value on σ2 receptor amounted to 44.

As to `COc1ccc(C)cc1NC(=O)OC1CC2CCCC(C1)N2CCCCCCN` (centres unmarked) [SV119], the “percentage of EMT-6 cells” value in the experiment with EMT-6 cells [1] (100 μM, 16 h) was found to be 73.5±2.4%. The EC50 in the experiment on EMT-6 cells [2] (setting [4]) was 16 ± 1.4 µM; in the experiment on EMT-6 cells [2] (setting [5]) it was 11 µM. In the experiment with caspase-3/7, the “concentration at which the highest level” value was 80 µM. Also, the results for the inhibition constant (Ki) on σ1 receptor (Ki for σ1 (nM)) and on σ2 receptor (setting [8]) were 1450 nM and 19.9 nM, respectively. Further, the 50% inhibitory concentration (IC50) in experiment [3] (setting [6]) turned out to be 36.7 ± 3.3 µM; in experiment [3] (setting [7]), 20.6 ± 2.7 µM.

For `COc1ccc(C)cc1NC(=O)O[C@H]1C[C@H]2CCC[C@@H](C1)N2Cc1ccc(N(C)C)cc1` [WC-II-26], in the experiment on EMT-6 cells [1] (40 μM, 48 h), the “percentage of EMT-6 cells” value turned out to be 96.6±2.7%. For the same compound, the EC50 with EMT-6 cells [2] (setting [4]) turned out to be 42.5 ± 3.5 µM; in the experiment on EMT-6 cells [2] (setting [5]) it was 12.5 µM. Also, the “concentration at which the highest level” value with caspase-3/7 amounted to 80 µM. Further, the values for the inhibition constant Ki at σ1 receptor (Ki for σ1 (nM)), on σ2 receptor (setting [8]) and at σ2 receptor (setting [9]) were 5570 nM, 10.8 nM and 10.9 nM, respectively. Besides, the IC50 stood at 51.6 ± 6 µM in experiment [3] (setting [6]) and 43.2 ± 2 µM in experiment [3] (setting [7]). Further, the “σ1/σ2 Ratio” value on σ2 receptor turned out to be 511.
